Drawing on patent publication US20240336611A1 (Insilico Medicine IP Limited, priority 2021, published 2024), this text covers IC50 for 23 compounds.

T1 sequence (Q9UKE5 1-367): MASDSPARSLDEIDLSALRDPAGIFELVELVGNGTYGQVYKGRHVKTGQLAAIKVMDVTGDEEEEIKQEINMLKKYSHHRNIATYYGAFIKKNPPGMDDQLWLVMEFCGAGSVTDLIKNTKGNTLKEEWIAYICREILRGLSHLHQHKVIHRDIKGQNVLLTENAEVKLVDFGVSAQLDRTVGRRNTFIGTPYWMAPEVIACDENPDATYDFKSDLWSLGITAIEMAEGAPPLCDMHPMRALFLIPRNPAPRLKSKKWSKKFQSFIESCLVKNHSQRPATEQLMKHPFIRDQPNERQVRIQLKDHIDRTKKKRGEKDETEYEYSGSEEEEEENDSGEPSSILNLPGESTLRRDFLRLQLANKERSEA

This experiment addresses T1, TNIK kinase [amino acid sequence (1-367), Invitrogen] (Homo sapiens, UniProt Q9UKE5).
T1 construct: purchased Invitrogen
Description: TNIK kinase inhibition assay (Z-lyte FRET-peptide). In kind it is biochemical. Particulars: 0.625 nM TNIK kinase, 2 μM Ser/Thr 7 peptide, 64 μM ATP, one hour at room temperature. As for the experimental part:
Z-lyte assay kit was purchased from Invitrogen. A site-specific protease recognizes and cleaves non-phosphorylated FRET-peptides. Phosphorylation of FRET-peptides suppresses cleavage by protease and will maintain FRET from donor to acceptor.
5 μl of Development Reagent A solution was then added to cleave non-phosphorylated peptide with a dilution 1:65000 in Development Buffer B. The assay plate was incubated at room temperature for another one hour and then read in the Envision plate reader (PerkinElmer).
Consider `O=C(Nc1ccc(N2CCCC2)cn1)c1c[nH]c(-c2c(-c3ccc(F)cc3)ncn2C2CC(F)(F)C2)n1` [Compound 76, 3′-(3,3-difluorocyclobutyl)-5′-(4-fluorophenyl)-N-(5-(pyrrolidin-1-yl)pyridin-2-yl)-1H,3′H-[2,4′-biimidazole]-4-carboxamide], for which the IC50 – broadly, the concentration that inhibits the measured activity by half – lay within 12 to 150 nM.
Consider `O=C(NC1CCOCC1)c1csc(-c2c(-c3ccc(F)cc3)ncn2C2CC(F)(F)C2)n1` [Compound 77, 2-(1-(3,3-difluorocyclobutyl)-4-(4-fluorophenyl)-1H-imidazol-5-yl)-N-(tetrahydro-2H-pyran-4-yl)thiazole-4-carboxamide], for which the IC50 was above 150 nM.
For `O=C(Nc1ccc(C2COC2)cn1)c1csc(-c2c(-c3ccc(F)cc3)ncn2C2COC2)n1` [Compound 78, 2-(4-(4-fluorophenyl)-1-(oxetan-3-yl)-1H-imidazol-5-yl)-N-(5-(oxetan-3-yl)pyridin-2-yl)thiazole-4-carboxamide], the IC50 was 1 to 12 nM.
Consider `O=C(Nc1ccc(N2CCC2)cn1)c1coc(-c2c(-c3ccc(F)cc3)ncn2C2COC2)n1` [Compound 79, N-(5-(azetidin-1-yl)pyridin-2-yl)-2-(4-(4-fluorophenyl)-1-(oxetan-3-yl)-1H-imidazol-5-yl)oxazole-4-carboxamide], for which the IC50 fell in the range of 12 to 150 nM.
`O=C(Nc1ccc(C2COC2)cc1F)c1coc(-c2c(-c3ccc(F)cc3)ncn2C2COC2)n1` [Compound 80, N-(2-fluoro-4-(oxetan-3-yl)phenyl)-2-(4-(4-fluorophenyl)-1-(oxetan-3-yl)-1H-imidazol-5-yl)oxazole-4-carboxamide] displayed an IC50 of 12 to 150 nM.
For `O=C(Nc1ccc(C2COC2)cn1)c1coc(-c2c(-c3ccc(F)cc3)ncn2C2COC2)n1` [Compound 82, 2-(4-(4-fluorophenyl)-1-(oxetan-3-yl)-1H-imidazol-5-yl)-N-(5-(oxetan-3-yl)pyridin-2-yl)oxazole-4-carboxamide] the value was 12 to 150 nM; for `CC(C)c1noc(-c2ccc(F)cc2)c1-c1nc(C(=O)Nc2ccc(C3CN(C)C3)cc2F)cs1` [Compound 87, N-(2-fluoro-4-(1-methylazetidin-3-yl)phenyl)-2-(5-(4-fluorophenyl)-3-isopropylisoxazol-4-yl)thiazole-4-carboxamide], 1 to 12 nM; for `CC(C)c1noc(-c2ccc(F)cc2)c1-c1nc(C(=O)Nc2ccc(C3CN(C)C3)cn2)cs1` [Compound 89, 2-(5-(4-fluorophenyl)-3-isopropylisoxazol-4-yl)-N-(5-(1-methylazetidin-3-yl)pyridin-2-yl)thiazole-4-carboxamide], 12 to 150 nM.
Regarding `CC(C)n1cnc(-c2ccc(F)cc2)c1-c1nc(C(=O)Nc2ccc(C3CN(C)C3)cc2F)co1` [Compound 101, N-(2-fluoro-4-(1-methylazetidin-3-yl)phenyl)-2-(4-(4-fluorophenyl)-1-isopropyl-1H-imidazol-5-yl)oxazole-4-carboxamide], the IC50 lay in the range of 1 to 12 nM.
To `CN1C2CC1CN(c1ccc(NC(=O)c3coc(-c4c(-c5ccc(F)cc5)ncn4C4CC(F)(F)C4)n3)c(F)c1)C2` [Compound 103, 2-(1-(3,3-difluorocyclobutyl)-4-(4-fluorophenyl)-1H-imidazol-5-yl)-N-(2-fluoro-4-(6-methyl-3,6-diazabicyclo[3.1.1]heptan-3-yl)phenyl)oxazole-4-carboxamide] belongs 1 to 12 nM; to `CC(C)c1onc(-c2ccc(F)cc2)c1-c1nc(C(=O)Nc2ccc(N3CC4CC(C3)N4C)cn2)co1` [Compound 104, 2-(3-(4-fluorophenyl)-5-isopropylisoxazol-4-yl)-N-(5-(6-methyl-3,6-diazabicyclo[3.1.1]heptan-3-yl)pyridin-2-yl)oxazole-4-carboxamide], 12 to 150 nM; to `CC(C)c1onc(-c2ccc(F)cc2)c1-c1nc(C(=O)Nc2ccc(N3CC4CC(C3)N4C)cc2F)co1` [Compound 105, N-(2-fluoro-4-(6-methyl-3,6-diazabicyclo[3.1.1]heptan-3-yl)phenyl)-2-(3-(4-fluorophenyl)-5-isopropylisoxazol-4-yl)oxazole-4-carboxamide], 12 to 150 nM.
`CC(C)c1onc(-c2ccc(F)cc2)c1-c1nc(C(=O)Nc2ccc(C3CN(C)C3)cc2F)co1` [Compound 106, N-(2-fluoro-4-(1-methylazetidin-3-yl)phenyl)-2-(3-(4-fluorophenyl)-5-isopropylisoxazol-4-yl)oxazole-4-carboxamide] registered an IC50 of 12 to 150 nM.
Compound `CC(C)c1onc(-c2ccc(F)cc2)c1-c1nc(C(=O)Nc2ccc(C3CN(C)C3)cn2)co1` [Compound 107, 2-(3-(4-fluorophenyl)-5-isopropylisoxazol-4-yl)-N-(5-(1-methylazetidin-3-yl)pyridin-2-yl)oxazole-4-carboxamide] gave an IC50 of 12 to 150 nM.
For the compound `[2H]C([2H])([2H])N1CC(c2ccc(NC(=O)c3csc(-c4c(-c5ccc(F)cc5)ncn4C([2H])(C)C)n3)nc2)C1` [Compound 110, 2-[3-(1-deuterio-1-methyl-ethyl)-5-(4-fluorophenyl)imidazol-4-yl]-N-[5-[1-(trideuteriomethyl)azetidin-3-yl]-2-pyridyl]thiazole-4-carboxamide], the IC50 was in the range of 1 to 12 nM.
As to `[2H]C([2H])([2H])N1CC(c2ccc(NC(=O)c3coc(-c4c(-c5ccc(F)cc5)ncn4C([2H])(C)C)n3)nc2)C1` [Compound 111], the IC50 fell in the range of 12 to 150 nM.
For the compound `[2H]C([2H])([2H])N1CC(c2ccc(NC(=O)c3coc(-c4c(-c5ccc(F)cc5)ncn4C(C)C)n3)nc2)C1` [Compound 112, 2-[5-(4-fluorophenyl)-3-isopropyl-imidazol-4-yl]-N-[5-[1 (trideuteriomethyl)azetidin-3-yl]-2-pyridyl]oxazole-4-carboxamide], the 50% inhibitory concentration (IC50) lay in the range of 12 to 150 nM.
The compound `[2H]C([2H])([2H])N1CC(c2ccc(NC(=O)c3c[nH]c(-c4c(-c5ccc(F)cc5)ncn4C(C)C)n3)nc2)C1` [Compound 113] yielded an IC50 of 12 to 150 nM.
The compound `[2H]C([2H])([2H])N1CC(c2ccc(NC(=O)c3csc(-c4c(C(C)C)cnn4-c4ccc(F)cc4)n3)nc2)C1` [Compound 116, 2-(1-(4-fluorophenyl)-4-isopropyl-1H-pyrazol-5-yl)-N-(5-(1-(trideuteriomethyl)azetidin-3-yl)pyridin-2-yl)thiazole-4-carboxamide] had an IC50 of 1 to 12 nM.
Turning to `[2H]C([2H])([2H])N1CC(c2ccc(NC(=O)c3c[nH]c(-c4c(-c5ccc(F)cc5)ncn4C([2H])(C)C)n3)nc2)C1` [Compound 118], the IC50 fell in the range of 12 to 150 nM.
For `[2H]C([2H])([2H])N1CC(c2ccc(NC(=O)c3c[nH]c(-c4c(-c5ccc(F)cc5)ncn4C4CCC4)n3)nc2)C1` [Compound 119, 2-[3-cyclobutyl-5-(4-fluorophenyl)imidazol-4-yl]-N-[5-[1-(trideuteriomethyl)azetidin-3-yl]-2-pyridyl]-1H-imidazole-4-carboxamide] the value was 12 to 150 nM; for `[2H]C([2H])([2H])N1CC(c2ccc(NC(=O)c3c[nH]c(-c4c(-c5ccc(F)cc5)ncn4C4CCC4)n3)c(F)c2)C1` [Compound 120, 2-[3-cyclobutyl-5-(4-fluorophenyl)imidazol-4-yl]-N-[2-fluoro-4-[1-(trideuteriomethyl)azetidin-3-yl]phenyl]-1H-imidazole-4-carboxamide], 1 to 12 nM.
To `[2H]C(C)(C)n1cnc(-c2ccc(F)cc2)c1-c1nc(C(=O)Nc2ccc(N3CCN(CC)CC3)cc2)c[nH]1` [Compound 135, 2-[3-(1-deuterio-1-methyl-ethyl)-5-(4-fluorophenyl)imidazol-4-yl]-N-[4-(4-ethylpiperazin-1-yl)phenyl]-1H-imidazole-4-carboxamide] belongs 12 to 150 nM.
